Literature values in patent US20240173460A1, “STORAGE SOLUTIONS FOR MAINTAINING OF AXONAL VIABILITY” (Board of Regents, The University of Texas System, priority 2022, published 2024).

Q: With `[Cl-].[K+]` [Potassium Chloride] as the compound, how does the solubility in water read?
A: freely soluble in water
